US4579841A, “Dipeptide derivatives having opiate activity” (University Patents, Inc., priority 1981, dated 1986)
Where a SMILES comes first, the peptide text is derived from it. [ ]: non-standard residue; d: D form.

System: electrically stimulated guinea pig ileum
Test: In vitro assay on the electrically stimulated guinea pig ileum (Chipkin, et al.)
Assay type: cell-based
Details: potency relative to methionine-enkephalin=100
Method: Peptides were assayed for biological activity in vitro on the electrically stimulated guinea pig ileum, using the procedure described by Chipkin, et al. (Life Sciences 28:1517-1522, 1981). All potencies of the peptides in this assay are reported relative to the potency of methionine-enkephalin=100. Analgesic activity of the peptides in vivo was assayed by the tail-flick method following intracerebroventricular injection, as described in the Chipkin, et al., reference. The standard for this assay was Tyr-D-Ala-Gly-Phe-Met-amide.
*(Assay on the stimulated guinea pig ileum according to Chipkin, et al.;
standard peptide is methionineenkephalin.)

## NC(=O)[C@@H](Cc1ccccc1)NC(=O)[C@@H](N)Cc1ccc(O)cc1 [Tyr--D-Phe--NH2] (H-Tyr-[dF]-NH2)
  Relate In Vitro Potency: 0.1
